SMILES strings stand for the structures. Entries after “also recorded” stand apart in the source; their conditions may differ.

We go through one molecule from patent publication US12167995B2, “[((1R,2S,5R)-2-isopropyl-5-methyl-cyclohexanecarbonyl)-amino]-acetic acid isopropyl ester for treatment of chronic cough” (AXALBION SA, priority 2019, dated 2024).

One assay concerns the target T1, hTRPV1 (Homo sapiens, UniProt Q8NER1).
T1 construct: expressed in transfected cells; host or cells: HEK-293
The assay is described as follows: FLIPR calcium assay, selectivity against hTRPV1 (expressed in HEK-293). In kind it is cell-based. As to the method: (§1) Similarly, selectivity against hTRPA1 (expressed in CHO) and hTRPV1 (expressed in HEK-293) was assessed using FLIPR® calcium assay (at 100 μM, i.e., 10-fold more than the concentration for maximal response; see FIG. 12). […] For the agonist effect assessment, the effect of AX-8 was evaluated in the absence of the positive control agonist. The maximal signal elicited in the presence of the respective agonist (300 μM mustard oil for TRPA1; 3 μM capsaicin for TRPV1) was set to 100% activation and the signal in the presence of the vehicle control (HB-PS) was set to 0% activation. For the antagonist effect assessment, the channels were activated with the respective positive control agonist (100 μM mustard oil for TRPA1; 0.1 μM capsaicin for TRPV1). The effects of AX-8 to inhibit the signal was examined after agonist stimulation and compared to the respective positive control antagonist (3 μM ruthenium red). For each channel, the signal elicited in the presence of the respective positive control agonist was set to 100 (0% inhibition) and the signal in the presence of the respective positive control antagonist was set to 0 (100% inhibition).

In the next assay the target is T2, human TRPM8 (Homo sapiens, UniProt Q7Z2W7).
T2 construct: host or cells: CHO cells
As to the kind of experiment: FLIPR calcium assay on cloned human TRPM8 channels expressed in CHO cells. The format is cell-based. On the procedure: AX-8 potency was assessed using Fluorescence Imaging Plate Reader (FLIPR®) assays (study performed by ChanTest/Charles River). The in vitro effects were evaluated on cloned human TRPM8 channels expressed in CHO cells using a Fluo-8 calcium kit and a Fluorescence Imaging Plate Reader ([…]™) instrument. Changes is fluorescence intensity, reflecting the calcium flux through hTRPM8, were measured and the area under the signals (area under the curve, AUC) calculated and expressed in relative light units. Changes induced by the vehicle (HEPES-buffered physiological saline solution, HB-PS) were subtracted.

The next assay deals with T3, hTRPA1 (Homo sapiens, UniProt O75762).
T3 construct: expressed in transfected cells; host or cells: CHO
As to the kind of experiment: FLIPR calcium assay, selectivity against hTRPA1 (expressed in CHO). In kind it is cell-based. As to the method:
as §1

In assay [1] the test system is refractory chronic cough (RCC). The assay is described as follows: Clinical Trial 2: cough severity and associated sensations, 100 mm VAS. In kind it is in vivo, human. On the procedure: Cough Severity was scored on a 100 mm Visual Analog Scale (VAS) at the specified time points. The patient was asked to indicate their assessment by marking (e.g., with a pen) a position along a 100 mm line between two extremes, e.g., “no cough” and “worst cough”. Urge-to-cough was scored on a 100 mm VAS at the specified time points. Throat irritation was scored on a 100 mm VAS at the specified time points. Throat cooling was scored on a 100 mm VAS at the specified time points. At least 24 hours after the Baseline Visit cough monitor has been attached on Day 0, and preferably before 10 am, the following activities were performed by clinic staff (not specified by the order below): • Remove the Baseline Visit cough monitor. • Update medical history. • Record all concomitant medication use. • Inclusion/exclusion criteria review. • If all inclusion and exclusion criteria were met, enroll patient into study. • Vital signs: before dose and 4 hours after dose. • 12-lead ECG (before dose). • Laboratory tests: • Urine drugs-of-abuse testing. • Pharmacokinetic (PK) sample taken. • Provide subject with VAS diary and instruct them to complete VAS assessments at +5 and +6 hours at home (see below). • Before dosing, attach and activate Treatment Visit cough monitor. • Administer the dose of the study drug (preferably before 10 am). • Cough severity VAS assessment: • Prior to dose: • −30 minutes. • After dose: • +1, +2, +3, +4, +5, +6 hours. • Urge-to-cough VAS assessment: • Prior to dose: • −30 minutes. • After dose: • +1, +2, +3, +4, +5, +6 hours. • Throat irritancy VAS assessment: • Prior to dose: • −30 minutes. • After dose: • +1, +2, +3, +4, +5, +6 hours. • Throat cooling VAS assessment: • Prior to dose: • −30 minutes. • After dose: • +1, +2, +3, +4, +5, +6 hours. • GRCS assessment at 4 hours after dose. • Schedule Follow-Up Visit. • Once the Investigator confirmed it was safe to do so, the subject could leave the unit after the assessments 4 hours after dose were complete. At least 24 hours after the Treatment Visit cough monitor has been attached (on Day 1), the following activities were performed by clinic staff (not specified by the order below): • Remove the Treatment Visit cough monitor. • Collect and review the VAS diary for completeness. • Overall impression of the treatment day (24 hours) with: • Cough severity VAS assessment. • Urge-to-cough VAS assessment. • Throat irritancy VAS assessment. • Throat cooling VAS assessment. • GRCS assessment. • Record all adverse events. • Record all concomitant medication use. • Schedule End of Study visit. End of Study Visit (Visit 5): The following procedures and evaluations were performed at the clinic between Day 7 and 14. At this visit, the following procedures and assessments were performed by clinic staff (not specified by the order below): • Cough severity VAS assessment. • Urge-to-cough VAS assessment. • Throat irritancy VAS assessment. • GRCS assessment. • Vital signs. • Weight. • Physical examination. • 12-lead ECG. • Laboratory tests: • Hematology. • Chemistry. • Urinalysis. • Urine pregnancy test for females of childbearing potential. • Record all adverse events. • Record all concomitant medication use.

T3 sequence (O75762 whole entry): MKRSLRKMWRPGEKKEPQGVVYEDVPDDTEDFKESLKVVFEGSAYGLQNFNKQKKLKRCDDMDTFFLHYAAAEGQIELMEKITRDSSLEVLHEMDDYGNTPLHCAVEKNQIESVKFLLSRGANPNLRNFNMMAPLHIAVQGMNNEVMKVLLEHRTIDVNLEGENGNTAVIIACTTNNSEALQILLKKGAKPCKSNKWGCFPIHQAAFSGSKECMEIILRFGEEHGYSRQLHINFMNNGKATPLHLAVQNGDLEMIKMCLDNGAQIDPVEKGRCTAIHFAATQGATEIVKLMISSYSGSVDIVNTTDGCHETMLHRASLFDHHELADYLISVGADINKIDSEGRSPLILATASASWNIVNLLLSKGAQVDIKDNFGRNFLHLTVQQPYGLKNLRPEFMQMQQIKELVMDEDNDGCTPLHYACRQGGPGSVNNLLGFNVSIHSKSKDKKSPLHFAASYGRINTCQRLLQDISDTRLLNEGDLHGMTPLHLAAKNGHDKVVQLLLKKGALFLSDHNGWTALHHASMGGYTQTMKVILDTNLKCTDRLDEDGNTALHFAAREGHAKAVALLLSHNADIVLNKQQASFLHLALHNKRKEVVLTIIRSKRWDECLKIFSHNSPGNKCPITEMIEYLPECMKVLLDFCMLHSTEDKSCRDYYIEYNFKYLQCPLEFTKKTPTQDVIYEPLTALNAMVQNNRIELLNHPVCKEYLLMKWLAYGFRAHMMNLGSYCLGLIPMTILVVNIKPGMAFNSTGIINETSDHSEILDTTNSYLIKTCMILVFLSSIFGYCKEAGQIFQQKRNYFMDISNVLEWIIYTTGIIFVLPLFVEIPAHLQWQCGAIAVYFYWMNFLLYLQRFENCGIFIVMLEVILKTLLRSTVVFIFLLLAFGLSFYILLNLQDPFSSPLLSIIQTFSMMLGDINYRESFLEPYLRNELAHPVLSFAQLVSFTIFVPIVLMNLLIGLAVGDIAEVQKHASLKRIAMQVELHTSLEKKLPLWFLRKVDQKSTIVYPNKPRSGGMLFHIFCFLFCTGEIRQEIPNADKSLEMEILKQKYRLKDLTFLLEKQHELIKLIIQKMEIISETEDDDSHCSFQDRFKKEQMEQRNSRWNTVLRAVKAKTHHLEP
T1 sequence (Q8NER1 whole entry): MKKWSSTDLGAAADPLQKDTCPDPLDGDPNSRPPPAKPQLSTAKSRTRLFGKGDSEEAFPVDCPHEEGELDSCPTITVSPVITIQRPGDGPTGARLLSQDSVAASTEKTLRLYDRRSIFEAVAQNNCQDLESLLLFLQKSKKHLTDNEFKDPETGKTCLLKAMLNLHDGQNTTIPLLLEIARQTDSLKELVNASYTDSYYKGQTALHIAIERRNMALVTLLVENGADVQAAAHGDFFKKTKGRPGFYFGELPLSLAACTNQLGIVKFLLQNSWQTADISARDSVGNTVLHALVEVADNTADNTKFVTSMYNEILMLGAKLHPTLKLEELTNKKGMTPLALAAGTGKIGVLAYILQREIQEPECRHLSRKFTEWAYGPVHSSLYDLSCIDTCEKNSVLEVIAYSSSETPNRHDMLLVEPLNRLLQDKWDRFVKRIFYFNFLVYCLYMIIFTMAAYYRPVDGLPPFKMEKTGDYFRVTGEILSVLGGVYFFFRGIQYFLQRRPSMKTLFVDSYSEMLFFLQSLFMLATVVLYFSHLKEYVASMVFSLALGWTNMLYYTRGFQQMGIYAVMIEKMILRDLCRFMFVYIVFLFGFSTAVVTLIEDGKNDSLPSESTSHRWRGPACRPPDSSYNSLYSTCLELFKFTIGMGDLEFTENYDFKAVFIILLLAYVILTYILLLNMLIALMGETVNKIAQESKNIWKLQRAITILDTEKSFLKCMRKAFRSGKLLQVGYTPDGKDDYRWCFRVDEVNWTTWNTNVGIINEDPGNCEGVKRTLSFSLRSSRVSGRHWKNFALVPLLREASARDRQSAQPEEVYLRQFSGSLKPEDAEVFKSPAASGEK
T2 sequence (Q7Z2W7 whole entry): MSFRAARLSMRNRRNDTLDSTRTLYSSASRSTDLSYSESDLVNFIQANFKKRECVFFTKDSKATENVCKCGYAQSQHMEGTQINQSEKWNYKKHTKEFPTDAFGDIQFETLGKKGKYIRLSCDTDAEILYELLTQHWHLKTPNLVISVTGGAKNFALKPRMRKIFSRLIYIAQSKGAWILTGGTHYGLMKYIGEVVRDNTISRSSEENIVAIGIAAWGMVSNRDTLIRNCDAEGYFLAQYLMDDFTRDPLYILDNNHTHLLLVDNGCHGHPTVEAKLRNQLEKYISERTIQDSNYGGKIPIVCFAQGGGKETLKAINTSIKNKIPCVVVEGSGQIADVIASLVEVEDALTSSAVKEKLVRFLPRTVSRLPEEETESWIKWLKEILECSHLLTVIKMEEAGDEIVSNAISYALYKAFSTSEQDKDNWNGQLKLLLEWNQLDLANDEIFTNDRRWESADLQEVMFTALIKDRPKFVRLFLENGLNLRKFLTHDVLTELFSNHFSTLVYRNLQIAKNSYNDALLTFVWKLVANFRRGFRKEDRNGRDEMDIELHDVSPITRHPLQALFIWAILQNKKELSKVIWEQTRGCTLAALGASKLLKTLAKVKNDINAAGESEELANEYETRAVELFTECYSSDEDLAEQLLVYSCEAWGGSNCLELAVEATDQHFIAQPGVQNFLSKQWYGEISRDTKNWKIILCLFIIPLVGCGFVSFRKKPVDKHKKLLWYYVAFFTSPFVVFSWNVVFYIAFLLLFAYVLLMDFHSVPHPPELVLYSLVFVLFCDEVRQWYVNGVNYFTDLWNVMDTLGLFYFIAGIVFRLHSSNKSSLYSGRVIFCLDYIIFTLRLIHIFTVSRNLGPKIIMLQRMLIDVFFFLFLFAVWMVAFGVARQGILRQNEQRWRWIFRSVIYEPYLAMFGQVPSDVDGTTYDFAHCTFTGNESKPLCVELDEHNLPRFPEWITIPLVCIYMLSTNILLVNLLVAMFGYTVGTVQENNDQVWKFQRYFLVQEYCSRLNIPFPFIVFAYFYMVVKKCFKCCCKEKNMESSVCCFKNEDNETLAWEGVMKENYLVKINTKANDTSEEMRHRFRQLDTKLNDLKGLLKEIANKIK

As for `CC(C)OC(=O)CNC(=O)[C@@H]1C[C@H](C)CC[C@H]1C(C)C` [AX-8, [((1R,2S,5R)-2-isopropyl-5-methyl-cyclohexanecarbonyl)-amino]-acetic acid isopropyl ester], the “antagonistic interaction with TRPV1” value on hTRPV1 (at 100 μM, channel activated with 0.1 μM capsaicin, control antagonist 3 μM ruthenium red) is on record as “no agonistic or antagonistic interactions”. For the same molecule, the “agonistic activity on hTRPV1” value at hTRPV1 (concentrations ≤100 μM, % of capsaicin maximal response, n=4) is given as “no agonistic or antagonistic interactions; also recorded: no agonistic activity on hTRPV1”. Moreover, the EC50 at human TRPM8 (calcium signal AUC, Fluo-8, n=8, read-out: half-maximal response concentration (EC50), activation of human TRPM8) was determined as 390 nM. Besides, on human TRPM8 (ratio of EC50 values), the “potency as TRPM8 agonist relative to menthol” value was roughly 6 times. The “antagonistic interaction with TRPA1” value on hTRPA1 (at 100 μM, channel activated with 100 μM mustard oil, control antagonist 3 μM ruthenium red) was “no agonistic or antagonistic interactions”. Further, the “agonistic activity on hTRPA1” value at hTRPA1 (concentrations ≤100 μM, % of mustard oil maximal response, n=4) was “no agonistic or antagonistic interactions; also recorded: no significant agonistic activity on hTRPA1”. The “Urge-to-Cough VAS, Median, Follow-Up (Visit 4)” value in assay [1] (>24-hour period after treatment, n=11, Screening 51.5) stood at 46.0 mm. For the same molecule, the “Throat Irritation VAS, Median, Follow-Up (Visit 4)” value in assay [1] (>24-hour period after treatment, n=11, Screening 55.0) is reported as 9.0 mm. Also, in assay [1] (>24-hour period after treatment, n=11, Screening 61.5), the “Cough Severity VAS, Median, Follow-Up (Visit 4)” value was found to be 47.0 mm. Further, in assay [1] (Day 7 to 14, n=11), the “Cough Severity VAS, Median, End of Study (Visit 5)” value was found to be 64.0 mm; the “Throat Irritation VAS, Median, End of Study (Visit 5)” value was determined as 47.0 mm; the “Urge-to-Cough VAS, Median, End of Study (Visit 5)” value was determined as 57.0 mm. Also, in assay [1] (FIG. 8), the “time of apparent maximum improvement in urge-to-cough” value is on record as “about 3 hours”. Further, the “throat cooling VAS time course” value in assay [1] (FIG. 10) is given as “increase only at 30 minutes”. Besides, the “cough severity VAS time course” value in assay [1] (hourly for 6 hours after treatment, FIG. 7) is on record as “reduction from the first hour that persisted for the 6 hours of monitoring”. Besides, the “urge-to-cough VAS time course” value in assay [1] (hourly for 6 hours after treatment, FIG. 8) is on record as “improvement from the first hour that persisted for the 6 hours of monitoring”. The “throat irritation VAS time course” value in assay [1] (hourly for 6 hours after treatment, FIG. 9, baseline lower on treatment day) is given as “improvement from the first hour that persisted for the 6 hours of monitoring”.
